The term pKi denotes −log10 of the Ki, conventionally taken in molar units.

Results on 21 molecules are retold here after patent US20260285855A1, “HETEROARYL DERIVATIVES AS DDRS INHIBITORS” (CHIESI FARMACEUTICI S.P.A., priority 2023, published 2026).

The target in assay [1] is T1, DDR1 (Homo sapiens, UniProt Q08345).
T1 construct: purchased Carna Biosciences
Put plainly: LanthaScreen Europium Kinase Binding assay, DDR1. The following applies: 5 nM DDR1, 20 nM Kinase Tracer 178, 1 h at rt; Ki from IC50 by Cheng-Prusoff; read-out: Ki DDR1. How it is done:
(§1) DDR1 and DDR2 binding assays were performed using Life Technologies LanthaScreen™ Europium Kinase Binding assay. […] IC50 values were determined in GraphPad Prism 7.0 software, using 4 parameter model: log (inhibitor) vs. response. IC50 values were converted in Ki using the Cheng-Prusoff equation (Ki-IC50/(1+ [Tracer]/Kd).
Background: Time-resolved FRET reads energy transfer from a long-lived donor to a nearby acceptor.

The target in assay [2] is T2, DDR2 (Homo sapiens, UniProt Q16832).
T2 construct: purchased Life Technologies
T2 sequence (Q16832 22-855): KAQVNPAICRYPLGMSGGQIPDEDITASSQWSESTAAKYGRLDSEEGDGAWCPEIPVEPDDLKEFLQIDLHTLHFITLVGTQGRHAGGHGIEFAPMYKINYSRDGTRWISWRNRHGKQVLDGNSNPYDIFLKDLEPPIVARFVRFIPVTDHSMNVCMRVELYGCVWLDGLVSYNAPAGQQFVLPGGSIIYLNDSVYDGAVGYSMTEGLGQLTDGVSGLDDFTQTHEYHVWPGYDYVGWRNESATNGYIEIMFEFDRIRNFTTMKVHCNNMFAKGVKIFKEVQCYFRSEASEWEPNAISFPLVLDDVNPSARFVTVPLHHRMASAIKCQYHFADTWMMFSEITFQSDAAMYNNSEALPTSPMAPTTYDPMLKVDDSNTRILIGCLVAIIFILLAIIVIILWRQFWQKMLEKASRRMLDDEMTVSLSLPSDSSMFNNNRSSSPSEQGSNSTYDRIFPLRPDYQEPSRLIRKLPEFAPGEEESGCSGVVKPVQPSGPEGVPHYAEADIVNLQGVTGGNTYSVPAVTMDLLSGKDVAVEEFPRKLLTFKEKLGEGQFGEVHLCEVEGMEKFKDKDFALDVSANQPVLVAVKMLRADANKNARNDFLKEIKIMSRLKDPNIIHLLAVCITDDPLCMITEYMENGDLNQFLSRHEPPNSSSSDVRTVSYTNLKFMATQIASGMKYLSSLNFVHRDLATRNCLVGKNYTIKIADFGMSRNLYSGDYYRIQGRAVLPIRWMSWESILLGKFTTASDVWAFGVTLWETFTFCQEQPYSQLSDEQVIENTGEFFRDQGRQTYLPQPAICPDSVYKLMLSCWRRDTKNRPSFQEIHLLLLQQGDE
The experiment in a line: LanthaScreen Europium Kinase Binding assay, DDR2. As to conditions: 5 nM DDR2, 10 nM Kinase Tracer 178, 1 h at rt; Ki from IC50 by Cheng-Prusoff; read-out: Ki DDR2. How it is done:
as §1

Each structure is given as a SMILES string. pKi: −log10 of the molar value. Some results are limits rather than exact numbers.

T1 sequence (Q08345 19-913): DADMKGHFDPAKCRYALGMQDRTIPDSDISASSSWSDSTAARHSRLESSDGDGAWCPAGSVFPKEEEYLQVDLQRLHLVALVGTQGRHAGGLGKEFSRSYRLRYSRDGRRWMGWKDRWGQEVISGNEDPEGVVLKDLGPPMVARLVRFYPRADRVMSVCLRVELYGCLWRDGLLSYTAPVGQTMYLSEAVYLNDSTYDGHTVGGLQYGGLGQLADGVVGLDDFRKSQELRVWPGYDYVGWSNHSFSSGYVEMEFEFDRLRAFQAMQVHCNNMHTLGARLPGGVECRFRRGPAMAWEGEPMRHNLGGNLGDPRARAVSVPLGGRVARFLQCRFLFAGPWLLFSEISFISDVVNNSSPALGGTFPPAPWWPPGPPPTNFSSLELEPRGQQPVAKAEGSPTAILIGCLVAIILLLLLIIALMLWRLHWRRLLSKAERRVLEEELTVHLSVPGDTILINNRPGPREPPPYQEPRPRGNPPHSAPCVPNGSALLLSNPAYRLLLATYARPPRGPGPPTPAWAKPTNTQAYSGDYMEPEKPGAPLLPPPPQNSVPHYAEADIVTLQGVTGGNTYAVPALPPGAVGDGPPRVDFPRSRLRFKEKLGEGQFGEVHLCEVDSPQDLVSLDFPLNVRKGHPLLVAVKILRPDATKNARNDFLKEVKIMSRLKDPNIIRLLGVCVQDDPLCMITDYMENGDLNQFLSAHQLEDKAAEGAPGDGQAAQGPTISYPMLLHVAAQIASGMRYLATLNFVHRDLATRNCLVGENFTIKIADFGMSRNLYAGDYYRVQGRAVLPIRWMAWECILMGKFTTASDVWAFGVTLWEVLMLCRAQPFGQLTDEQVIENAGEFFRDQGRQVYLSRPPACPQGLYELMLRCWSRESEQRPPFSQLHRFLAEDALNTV

In the case of `CN(C(=O)Nc1cncc(C(F)(F)F)c1)C1CC2(C1)CN(c1cnc3[nH]ccc3c1)C2` [Example 220, 1-(2-(1H-pyrrolo[2,3-b]pyridin-5-yl)-2-azaspiro[3.3]heptan-6-yl)-1-methyl-3-(5-(trifluoromethyl)pyridin-3-yl)urea], the pKi was 7.60 to 8.30 in assay [1] and 7.00 to 7.60 in assay [2].

As to `CN(C(=O)Nc1cncc(OC(F)(F)F)c1)C1CC2(C1)CN(c1cnc3[nH]ncc3c1)C2` [Example 221, 1-(2-(1H-pyrazolo[3,4-b]pyridin-5-yl)-2-azaspiro[3.3]heptan-6-yl)-1-methyl-3-(5-(trifluoromethoxy)pyridin-3-yl)urea], the negative-log Ki (pKi) in assay [1] was above 8.30; in assay [2], 7.60 to 8.30.

As to `CN(C(=O)Nc1cc(C(C)(C)C)on1)C1CC2(C1)CN(C(=O)c1cnn3ccn(C)c13)C2` [Example 222, 3-(5-(tert-butyl)isoxazol-3-yl)-1-methyl-1-(2-(1-methyl-1H-imidazo[1,2-b]pyrazole-7-carbonyl)-2-azaspiro[3.3]heptan-6-yl)urea], the pKi in assay [1] is 7.60 to 8.30; in assay [2], 7.00 to 7.60.

In the case of `Cc1cc(NC(=O)N(C)C2CC3(C2)CN(C(=O)c2cnn4ccn(C)c24)C3)cc(C(F)(F)F)c1` [Example 223, 1-methyl-1-(2-(1-methyl-1H-imidazo[1,2-b]pyrazole-7-carbonyl)-2-azaspiro[3.3]heptan-6-yl)-3-(3-methyl-5-(trifluoromethyl)phenyl)urea], the pKi in assay [1] is above 8.30; in assay [2], 7.60 to 8.30.

With `CN(C(=O)Nc1cc(Cl)cc(C(F)(F)F)c1)C1CC2(C1)CN(C(=O)c1cnn3ccn(C)c13)C2` [Example 224, 3-(3-chloro-5-(trifluoromethyl)phenyl)-1-methyl-1-(2-(1-methyl-1H-imidazo[1,2-b]pyrazole-7-carbonyl)-2-azaspiro[3.3]heptan-6-yl)urea], the pKi is above 8.30 in assay [1] and 7.60 to 8.30 in assay [2].

On to `COCCc1cn2ncc(C(=O)N3CC4(CC(N(C)C(=O)Nc5cncc(C(F)(F)F)c5)C4)C3)c2n1C` [Example 225, 1-(2-(2-(2-methoxyethyl)-1-methyl-1H-imidazo[1,2-b]pyrazole-7-carbonyl)-2-azaspiro[3.3]heptan-6-yl)-1-methyl-3-(5-(trifluoromethyl)pyridin-3-yl)urea], for which the pKi in assay [1] was above 8.30; in assay [2] it was 7.00 to 7.60.

For `CN(C(=O)Nc1cc(Br)ccn1)C1CC2(C1)CN(C(=O)c1cnn3ccsc13)C2` [Example 226, 3-(4-bromopyridin-2-yl)-1-methyl-1-(2-(pyrazolo[5,1-b]thiazole-7-carbonyl)-2-azaspiro[3.3]heptan-6-yl)urea], the pKi was above 8.30 in assay [1] and 7.60 to 8.30 in assay [2].

For the molecule `COCCn1cc(-c2ccc3c(C(=O)N4CC5(CC(N(C)C(=O)Nc6cncc(C(F)(F)F)c6)C5)C4)cnn3c2)cn1` [Example 227, 1-(2-(6-(1-(2-methoxyethyl)-1H-pyrazol-4-yl)pyrazolo[1,5-a]pyridine-3-carbonyl)-2-azaspiro[3.3]heptan-6-yl)-1-methyl-3-(5-(trifluoromethyl)pyridin-3-yl)urea], the negative logarithm of the Ki (pKi) was above 8.30 in assay [1] and 7.60 to 8.30 in assay [2].

Consider `CN(C(=O)Nc1cc(C(F)(F)F)cnn1)C1CC2(C1)CN(C(=O)c1cnn3ccsc13)C2` [Example 228, 1-methyl-1-(2-(pyrazolo[5,1-b]thiazole-7-carbonyl)-2-azaspiro[3.3]heptan-6-yl)-3-(5-(trifluoromethyl)pyridazin-3-yl)urea], for which the pKi was above 8.30 in assay [1] and 7.00 to 7.60 in assay [2].

As to `Cc1ncc(-c2ccc3c(C(=O)N4CC5(CC(N(C)C(=O)Nc6cncc(C(F)(F)F)c6)C5)C4)cnn3c2)o1` [Example 229, 1-methyl-1-(2-(6-(2-methyloxazol-5-yl)pyrazolo[1,5-a]pyridine-3-carbonyl)-2-azaspiro[3.3]heptan-6-yl)-3-(5-(trifluoromethyl)pyridin-3-yl)urea], the results for the pKi in assay [1] and in assay [2] were above 8.30 and 7.60 to 8.30, respectively.

For `CN(C(=O)Nc1cncc(C(F)(F)F)c1)C1CC2(C1)CN(C(=O)c1cnn3cc(-c4cccnc4)ccc13)C2` [Example 230, 1-methyl-1-(2-(6-(pyridin-3-yl)pyrazolo[1,5-a]pyridine-3-carbonyl)-2-azaspiro[3.3]heptan-6-yl)-3-(5-(trifluoromethyl)pyridin-3-yl)urea], the pKi in assay [1] was above 8.30; in assay [2], 7.60 to 8.30.

In the case of `CN(C(=O)Nc1cncc(C(F)(F)F)c1)C1CC2(C1)CN(C(=O)c1cnn3cc(-c4cnn(C)c4)ccc13)C2` [Example 231, 1-methyl-1-(2-(6-(1-methyl-1H-pyrazol-4-yl)pyrazolo[1,5-a]pyridine-3-carbonyl)-2-azaspiro[3.3]heptan-6-yl)-3-(5-(trifluoromethyl)pyridin-3-yl)urea], the pKi is above 8.30 in assay [1] and 7.60 to 8.30 in assay [2].

In the case of `Cc1ccc(C(F)(F)F)cc1NC(=O)N(C)C1CC2(C1)CN(C(=O)c1cnn3ccn(C)c13)C2` [Example 232, 1-methyl-1-(2-(1-methyl-1H-imidazo[1,2-b]pyrazole-7-carbonyl)-2-azaspiro[3.3]heptan-6-yl)-3-(2-methyl-5-(trifluoromethyl)phenyl)urea], the pKi in assay [1] was above 8.30; in assay [2], 7.60 to 8.30.

Turning to `COc1ccc(-c2ccc3c(C(=O)N4CC5(CC(N(C)C(=O)Nc6cncc(C(F)(F)F)c6)C5)C4)cnn3c2)cc1OC` [Example 233, 1-(2-(6-(3,4-dimethoxyphenyl)pyrazolo [1,5-a]pyridine-3-carbonyl)-2-azaspiro[3.3]heptan-6-yl)-1-methyl-3-(5-(trifluoromethyl)pyridin-3-yl)urea], the pKi in assay [1] is above 8.30; in assay [2], 7.60 to 8.30.

As to `Cc1ncc(-c2ccc3c(C(=O)N4CC5(CC(N(C)C(=O)Nc6cncc(C(F)(F)F)c6)C5)C4)cnn3c2)s1` [Example 234, 1-methyl-1-(2-(6-(2-methylthiazol-5-yl)pyrazolo[1,5-a]pyridine-3-carbonyl)-2-azaspiro[3.3]heptan-6-yl)-3-(5-(trifluoromethyl)pyridin-3-yl)urea], the pKi is above 8.30 in assay [1] and 7.60 to 8.30 in assay [2].

As to `CN(C(=O)Nc1cc(C(C)(C)C(F)(F)F)on1)C1CC2(C1)CN(C(=O)c1cnn3ccsc13)C2` [Example 235, 1-methyl-1-(2-(pyrazolo[5,1-b]thiazole-7-carbonyl)-2-azaspiro[3.3]heptan-6-yl)-3-(5-(1,1,1-trifluoro-2-methylpropan-2-yl)isoxazol-3-yl)urea], the values for the pKi in assay [1] and in assay [2] were above 8.30 and 7.60 to 8.30, respectively.

In the case of `COc1cc(-c2ccc3c(C(=O)N4CC5(CC(N(C)C(=O)Nc6cncc(C(F)(F)F)c6)C5)C4)cnn3c2)ccn1` [Example 236, 1-(2-(6-(2-methoxypyridin-4-yl)pyrazolo[1,5-a]pyridine-3-carbonyl)-2-azaspiro[3.3]heptan-6-yl)-1-methyl-3-(5-(trifluoromethyl)pyridin-3-yl)urea], the figures for the pKi in assay [1] and in assay [2] were above 8.30 and 7.60 to 8.30, respectively.

Turning to `Cc1cc(-c2ccc3c(C(=O)N4CC5(CC(N(C)C(=O)Nc6cncc(C(F)(F)F)c6)C5)C4)cnn3c2)on1` [Example 237, 1-methyl-1-(2-(6-(3-methylisoxazol-5-yl)pyrazolo[1,5-a]pyridine-3-carbonyl)-2-azaspiro[3.3]heptan-6-yl)-3-(5-(trifluoromethyl)pyridin-3-yl)urea], the pKi was above 8.30 in assay [1] and 7.60 to 8.30 in assay [2].

As to `CN(C(=O)Nc1cc(C(F)(F)F)ccn1)C1CC2(C1)CN(C(=O)c1cnn3ccccc13)C2` [Example 238, 1-methyl-1-(2-(pyrazolo[1,5-a]pyridine-3-carbonyl)-2-azaspiro[3.3]heptan-6-yl)-3-(4-(trifluoromethyl)pyridin-2-yl)urea], the pKi is above 8.30 in assay [1] and 7.60 to 8.30 in assay [2].

`CN(C(=O)Nc1cc(OC(F)(F)F)ccn1)C1CC2(C1)CN(C(=O)c1cnn3ccccc13)C2` [Example 239, 1-methyl-1-(2-(pyrazolo[1,5-a]pyridine-3-carbonyl)-2-azaspiro[3.3]heptan-6-yl)-3-(4-(trifluoromethoxy)pyridin-2-yl)urea]: the pKi is above 8.30 in assay [1] and 7.60 to 8.30 in assay [2].

Turning to `CN(C(=O)Nc1cncc(C(F)(F)F)c1)C1CC2(C1)CN(C(=O)c1cnn3cc(N4CCCC4)ccc13)C2` [Example 240, 1-methyl-1-(2-(6-(pyrrolidin-1-yl)pyrazolo[1,5-a]pyridine-3-carbonyl)-2-azaspiro[3.3]heptan-6-yl)-3-(5-(trifluoromethyl)pyridin-3-yl)urea], the pKi in assay [1] and in assay [2] was 7.60 to 8.30 throughout.
